Here are results for 1 molecule from patent US20190298717A1 (BOARD OF REGENTS, THE UNIVERSITY OF TEXAS SYSTEM, priority 2016, published 2019).

“Also recorded” adds a separate entry of the source.

Data set [1] concerns SH-SY5Y cells. Kind of data set: Protein carbonyl assay (2,4-DNPH) in H2O2-stressed cells. The data set is classed as cell-based, human. Particulars: 100 μM H2O2 24 h, 10 and 25 μM compound. The method, then: (§1) To generate intracellular aldehydes, the inventors treated human neuroblastoma cell line (SH-SY5Y) with 100 μM hydrogen peroxide (H2O2) for 24 h. Carbonyl groups were quantified using 2,4-DNPH (dinitrophenylhydrazine) assay.
Protein carbonyl Assay. Protein carbonyls were measured using a commercially available kit (MAK094; Sigma-Aldrich, St. Louis, Mo.). Cells were first lysed in lysis buffer provided by the kit.
Following centrifugation, 100 μL of supernatant was added to 10 μL of 10% […] solution, was incubated at room temperature for 10 min and re-centrifuged to remove interfering nucleic acids. Carbonyl content of supernatant was determined by adding 2, 4-dinatrophenylhydrazine followed by detection of dinitrophenyl hydrazine adduct at 375 nm in a 96 well plate reader. The protein content of each sample was determined using a bicinchoninic acid (BCA) assay, Thermo Fischer, Waltham, Mass.).

The test system of data set [2] is SH-SY5Y cells. Kind of data set: MTT cell viability under H2O2 induced stress. It is filed as cell-based, human. As to conditions: 100 μM H2O2 24 h; 10 and 25 μM compound; listed as hydralazine. The method, then: as §1
Cell Viability and Cytotoxicity Assay. Cell growth was analyzed using the MTT cell viability assay. Briefly, at the end of incubation/treatment, MTT reagent was diluted in culture medium and aliquoted into each well. After incubation for 2 hours, the medium was aspirated and DMSO was aliquoted into each well to disrupt the cells and dissolve the intracellular MTT dyes. Absorbance was read at 570 nm wavelength in a 96-well plate reader. Cell toxicity was detected using a LDH cell toxicity assay kit (Promega, Fitchburg Wis.). This is a coupled enzymatic assay that detects a visible color signal initially described by Nachlas et. al. The reagent contained excess concentrations of lactate and NAD+as substrates to drive the LDH reaction and produce NADH. In the presence of diaphorase, NADH drives the enzyme-catalyzed conversion of iodonitro-tetrazolium violet to a red formazan product. Briefly, DMEM medium was withdrawn from each well of the plate after treatment and briefly centrifuged to get rid of floating cells or cell debris. […] The absorbance was read at 490 nm in a 96-well plate reader. […]

Data set [3] concerns primary cortical neuronal cells. Particulars: 0.1, 1, 10 μM, 1 μM rotenone, 24 hours. The method, then: The inventors first measured the cell proliferation to evaluate the stress caused by expression of tau fibrils in aggregate-positive and negative cells (FIG. 6A). […] The inventors also measured the concentration of superoxide ions (O2-), a detrimental byproduct of oxidative phosphorylation, as an ROS representative. […] The inventors next measured expression of Nrf2 and HO-1 in the same cells (FIG. 6C). […] Aggregate-positive and -negative KD cells were treated with 200 μM H2O2 for 24 h. Cytotoxicity was measured as release of LDH.
Cell Viability and Cytotoxicity Assay. Cell growth was analyzed using the MTT cell viability assay. Briefly, at the end of incubation/treatment, MTT reagent was diluted in culture medium and aliquoted into each well. After incubation for 2 hours, the medium was aspirated and DMSO was aliquoted into each well to disrupt the cells and dissolve the intracellular MTT dyes. Absorbance was read at 570 nm wavelength in a 96-well plate reader. Cell toxicity was detected using a LDH cell toxicity assay kit (Promega, Fitchburg Wis.). This is a coupled enzymatic assay that detects a visible color signal initially described by Nachlas et. al. The reagent contained excess concentrations of lactate and NAD+as substrates to drive the LDH reaction and produce NADH. In the presence of diaphorase, NADH drives the enzyme-catalyzed conversion of iodonitro-tetrazolium violet to a red formazan product. Briefly, DMEM medium was withdrawn from each well of the plate after treatment and briefly centrifuged to get rid of floating cells or cell debris. Then, the medium supernatant was mixed with equal volume of substrate/enzyme mixture included in the kit (lactate, NAD+, diaphorase and iodonitro-tetrazolium violet), followed by incubation at room temperature for 15 minutes before the addition of acetic acid to cease the reaction. The absorbance was read at 490 nm in a 96-well plate reader. […] Cell viability assay was performed using CellTiter-Glo assay.

Data set [4] deals with SH-SY5Y cells. Kind of data set: Mitochondrial membrane potential (TMRE). It is filed as cell-based, human. Particulars: hydralazine 0, 10, 20 μM; isoniazid 20 μM. The method, then:
(§2) Cells were stained by TMRE to tag active mitochondria. Florescence signal was quantified by Flow Jo software. […] ATP levels were measured by bioluminescent detection of luciferase activity. All data are presented normalized to cell number.
(§3) The mitochondrial membrane potential was measured as an indicator of cellular energetics and ATP content.

Data set [5] concerns SH-SY5Y cells. Particulars: 0, 10, 20 μM, 3 days. The method, then:
as §2, §3

Data set [6] concerns PC12 cells expressing EGFP-HDQ74. The method, then:
Transgene expression was induced with doxycycline for 8 hours, and then switched off (by removing doxycycline). […] The fraction of EGFP-positive cells expressing aggregates under different conditions were plotted as odds ratios taking Ctrl value as 1. Error bars show 95% confidence interval. […] The fraction of EGFP-positive cells with aggregates were plotted as odds ratios taking Ctrl value as 1. Error bars show 95% confidence interval. […] Rapamycin ([…]) was used as positive control. Right panel is densitometry analysis of EGFP-HDQ74 level normalized to actin. Error bars show SD. […] The fraction of EGFP-positive cells expressing aggregates were plotted as odds ratios taking Ctrl value as 1. Error bars show 95% confidence interval.
To investigate the clearance of HDQ74 (74 repeats of poly Q), the inventors used a stable doxycycline-inducible PC12 cell line expressing EGFP-tagged HDQ74 in which transgene expression were induced by doxycycline addition to the cell media and switched off by doxycycline removal. […] Rapamycin, a known autophagy inducer, was used as positive controls.

Data set [7] relates to SH-SY5Y cells. Particulars: Aβ (1-42) 20 μM, 24 hour; 46% with Aβ alone. The method, then: Densitometry values were normalized against actin.
After 24 hour treatment, cell viability was measured using the cell titer glow luminescence assay.

In data set [8] the test system is GSK3β and Tau. The method, then:
(§4) The data represents as percent cell viability normalized to DMSO treated control cells. The values are mean percent of two biological experiments performed in six replicates. […] After treatment Western blot analysis was performed to check the levels of p-GSK3β and total GSK3β in addition to p-Tau and total Tau level. […] Densitometry values were normalized using actin as internal control. All western blot analysis (FIG. 19B, 19C) values are mean±SD from three biological independent experiments (shown in the right panel).
(§5) To mimic the cellular environment of AD disease a stable HEK293 cell line (HEKTauP301S) overexpressing mutated full length Tau (P301S) was used.

The subject of data set [9] is HEKTauP301S cells. As to conditions: 20 μM Aβ (1-42), 5 and 10 μM, 24 hours. The method, then:
as §4, §5

Data set [10] has as its system Nrf2 pathway. As to conditions: SH-SY5Y, 10 μM, 24 h.
Protocol: Cell culture in SILAC media and Lysate Preparation. SHY-SY5Y cells were grown in Dulbecco's modified Eagle's medium containing either unlabeled L-Proline, L-arginine (Argo) and L-lysine (Lyso) or L-Proline, heavy isotope-labeled L-arginine-^13C6^14N4(Arg^10) and L-lysine-^13C6-^15N2 (Lys^8) (Cambridge Isotope Laboratories, Inc.) supplemented with 10% dialyzed fetal bovine serum (Thermo Fischer, Waltham, Mass.). […] After treatment, cells were harvested by trypisinization, washed three times with cold PBS and lysed in a buffer containing 6M Urea, 2M Thio-urea, 1% SDS and 100 mM Tris/HCl, pH 8.0 with protease (Thermo Fischer, Waltham, Mass.) and phosphatase inhibitors. After incubation for 15 min at RT and sonication, the samples were clarified by centrifugation for 15 min at 20,000×g. Protein content was determined using the 660 nM protein assay kit (Thermo Fisher, Waltham, Mass.) according to the manufacturer's instructions.
Protein Digestion and Peptide Fractionation. […] The mix digest (300 μg) was then fractionated into six fractions via strong cation exchange (SCX). […]
Mass Spectrometry for SILAC. All the fractions were analyzed using a Q-Exactive HF mass spectrometer (Thermo Electron, Burlingame, Calif.) coupled to an Ultimate 3000 RSLCnano HPLC systems (Thermo Electron, Sunnyvale Calif.). […]
The subject of data set [11] is glutathione S-transferase-4 (GST-4).
Protocol: The inventors measured the expression of glutathione S-transferase-4 (GST-4), a downstream target of SKN-1, in a transgenic strain (CL2166) expressing GFP driven by the GST-4 promoter (Kahn et al., 2008).
Imaging. To measure the GFP intensity, synchronized populations of worms were anesthetized and arranged on agarose pad. The intestinal SKN-1::GFP was assayed by confocal microscopy (X40) (Nikon A1R, Nikon Instruments Inc., Melville, N.Y., USA) (FIG. 5A). The quantification of intestinal SKN-1::GFP was performed with ImageJ (FIG. 5B). The ASI SKN-1::GFP was assayed by a Zeiss Axiolmager M2 microscope equipped with a Hamamatsu Flash 4.0 Scientific c-mos camera and Zen2 software (X40) (FIG. 5D). The quantification of ASI SKN-1::GFP was performed with ImageJ using a sliding paraboloid algorithm for reducing the background followed by edge detection. The t-test was conducted with Welsh correction since the standard deviations were not equal (FIG. 5E). The GSTp::GFP intensity was measured same as ASI SKN-1::GFP but with ×5 magnification. The GSTp::GFP quantification was done using the whole worm signal following the same protocol as intestinal SKN-1::GFP (FIG. 5G).
Data set [12] has as its system MEF cells. Particulars: 10 μM, 24 and 48 hours.
Protocol: Cells were then subjected to confocal analysis and mRFP-GFP (yellow representing autophagosome) and mRFP (red puncta representing autophagolysosomes) were recorded; scale bar, 10 gtm. […] The co-localization of mRFP with GFP signal from tfLC3 puncta was measured using ImageJ software.
To further validate the present invention autophagic flux using mRFP-GFP tandem fluorescent-tagged LC3 (tfLC3) was measured. tfLC3 protein is one of the most widely used markers for the detection of autophagosomes and autophagolysosomes, two key structures in macroautophagy (8). tfLC3 was knocked-in to monitor autophagic flux in MEF cells based on different pH stabilities of GFP and mRFP (9). In autophagosome environment both mRFP and GFP tags of tfLC3 can fluoresce so autophagosome appear as yellow puncta (green GFP+red mRFP). […] Rapamycin was used as a positive control.
Data set [13] deals with GSK3β and Tau. Kind of data set: p-GSK3β and p-Tau in Aβ (1-42) treated primary neurons. As to conditions: 1 μM, 24 hours.
Protocol: Cells were transfected with tdTomato (red) plasmid to visualize structural and morphological changes of neurons. Nuclei were stained with DAPI (blue) scale bar=10 μm. […] Densitometry values were normalized using actin as an internal control.
Immunofluorescence assays were performed and the phosphorylation status of GSK3β and Tau proteins were analyzed in primary cells using pGSK3β (S9) and pTau (S396) antibodies. Primary cortical neurons were isolated from the cortex of 0 day pups, cultured for two weeks, and were transfected with tdTomato plasmid to visualize structural and morphological changes of neurons. […] At the end of the treatment cells were fixed and immunostained with respective antibodies.
[14] abbreviates: HEKTauP301S, 500 nM Aβ (1-42), 10 μM, 24 hours.

As for `NNc1nncc2ccccc12` [Hydralazine], the protein carbonyls result in data set [1] is listed as “significantly reduced the carbonyl level”. Moreover, the protein carbonyls result in data set [1] (listed as hydralazine) is “reduced protein carbonyls significantly”. Moreover, in data set [2], the “cell viability under H2O2 induced cell death (MTT)” value is “significantly improved; also recorded: provided protection in a dose-dependent manner”. Moreover, in [3], the “viability of primary neuronal cells under rotenone” value is reported as “rescues primary neuronal cells from rotenone toxicity in a dose-dependent manner”. Besides, in data set [4], the “mitochondrial membrane potential / mitochondrial function (TMRE)” value is listed as “improves mitochondrial function in a dose dependent manner”. In addition, the “total ATP content” value in [5] is listed as “elevated ATP level in a concentration dependent manner”. Besides, in [6], the “poly Q aggregates (Western blot, EGFP tag)” value is “efficient removal of poly Q aggregates”. Further, the “EGFP-HDQ74 aggregates (confocal)” value in data set [6] (10 μM, 48 hours) is on record as “significantly reduced”. The “clearance of Poly Q aggregates after 3-MA and bafilomycin” value in data set [6] (5 mM 3-MA, 20 nM bafilomycin) is given as “abrogated”. In addition, in data set [6] (ATG5 shRNA), the “EGFP-HDQ74 aggregates in ATG5 knock-down cells” value was “failed to clear”. In addition, in data set [7], the “cells surviving Aβ (1-42) peptide treatment” value is 70-80%. The “phosphorylation level of GSK3β in control HEK293 cells” value in data set [8] (HEKT293 cells as control) was “not able to detect a significant upregulation”. Moreover, in [8] (setting [14]), the “Aβ-induced Tau phosphorylation” value is reported as “inhibits Aβ-induced Tau phosphorylation” and the “phosphorylation of GSK3β” value was “upregulates the phosphorylation of GSK3β”. In addition, the “viability under Aβ (1-42)-induced toxicity” value in data set [9] is recorded as “protects Tau-overexpressing cells”. Also, the “Nrf2 pathway activation, IPA Z score” value in [10] came to 0.156. Also, the “GST-4p::GFP signal in worms fed skn-1(RNAi) or skn-1(zu67)” value in data set [11] (100 μM, 72 h) is given as “did not increase GFP signal”. Moreover, the “GST-4p::GFP signal” value in data set [11] (strain CL2166, 48 h after treatment) is “significant increase in the GFP signal”. For the same molecule, in data set [12], the “autophagic flux (autophagosomes, autophagolysosomes)” value is reported as “induction of autophagic flux”. Also, in [13], the “pGSK3β (S9) in primary cells” value is given as “marked increase” and the “pTau in primary cells” value is recorded as “reduced level of pTau”.
